Patent publication US12122816B2, “Long acting peptide tyrosine tyrosine (PYY) analogs and methods of use” (Intarcia Therapeutics, Inc., priority 2020, dated 2024)
pEC50: −log10 of the molar value. Starred links: 1 amine or outer side, 2 acyl side, 3 side chain; linkers in the order of their positions; H or OH if unused. Non-standard residues stand in square brackets, D forms with d. Residues, ends and D or L forms follow the SMILES beside them. Groups on a side chain read outwards from the residue. *: point of attachment. C20 diacid = O=C(O)CCCCCCCCCCCCCCCCCCC(=O)*; γGlu = O=C(O)[C@H](CCC(=O)[*:2])N[*:1]; NMeY = CN[C@@H](Cc1ccc(O)cc1)C(=O)O

Legend:
[1] = biological target: T1, human Y2 receptor (Homo sapiens, UniProt P49146); assay: NPY receptor functional assay (cAMP, HEK-CNG cells, ACTOne membrane potential dye); format: cell-based; details: NPY2R pEC50, HEK-CNG cells; standard PYY(3-36); species (human or rat) not given
T1 sequence (P49146 1-381): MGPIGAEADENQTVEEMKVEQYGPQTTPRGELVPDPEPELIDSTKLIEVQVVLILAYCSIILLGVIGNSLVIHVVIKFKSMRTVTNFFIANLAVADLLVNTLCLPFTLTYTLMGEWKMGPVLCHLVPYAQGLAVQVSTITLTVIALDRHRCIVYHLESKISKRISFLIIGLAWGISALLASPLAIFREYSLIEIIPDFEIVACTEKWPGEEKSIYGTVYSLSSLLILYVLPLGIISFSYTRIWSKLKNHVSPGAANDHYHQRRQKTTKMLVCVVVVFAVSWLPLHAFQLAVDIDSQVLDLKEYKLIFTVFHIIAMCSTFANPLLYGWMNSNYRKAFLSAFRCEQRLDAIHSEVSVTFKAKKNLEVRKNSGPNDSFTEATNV
Method in brief: (§1)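 HEK-CNG cells stably expressing each human receptor; peptides added in triplicate for 50 minutes at room temperature, with agonism read as decreased isoproterenol-induced membrane potential dye signal (final/initial read).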

[2] = biological target: T2, human Y5 receptor (Homo sapiens, UniProt Q15761); assay: as above; format: cell-based; details: NPY5R pEC50, HEK-CNG cells; standard NPY; species (human or rat) not given
T2 sequence (Q15761 1-445): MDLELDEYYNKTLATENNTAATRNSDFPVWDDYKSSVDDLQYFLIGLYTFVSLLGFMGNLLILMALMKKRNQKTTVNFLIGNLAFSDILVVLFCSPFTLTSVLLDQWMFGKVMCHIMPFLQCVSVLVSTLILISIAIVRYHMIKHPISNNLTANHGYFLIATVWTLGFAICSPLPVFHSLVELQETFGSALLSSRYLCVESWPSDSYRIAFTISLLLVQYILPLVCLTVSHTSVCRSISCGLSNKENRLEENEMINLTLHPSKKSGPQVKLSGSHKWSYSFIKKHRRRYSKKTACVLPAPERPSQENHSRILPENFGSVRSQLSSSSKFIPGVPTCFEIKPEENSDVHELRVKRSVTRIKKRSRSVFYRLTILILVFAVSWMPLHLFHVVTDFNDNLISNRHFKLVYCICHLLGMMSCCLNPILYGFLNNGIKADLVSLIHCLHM
Method in brief: as §1

[3] = In vitro metabolic stability in kidney brush border membranes (kBBM); format: in vitro ADME; details: pH 7.4, human kBBM 50 mcg protein/mL, 1 mcM peptide, 37° C., read-out: hkBBM t½ (converted)
Description: In vitro incubations in kidney brush border membrane (kBBM) preparations were used to characterize the ability of peptides to resist degradation by proteases and peptidases in the systemic circulation. kBBM were selected because they contain a high concentration of a diverse set of proteases and peptidases, many of which are present throughout the body.
Brush border membranes from rat and human kidney tissue were prepared via centrifugation and stored at −70° C. Thawed stocks of rat or human kBBM were diluted to the appropriate concentration in 25 mM HEPES buffer (pH 7.4) containing 1% casein and aliquoted into a 96-well plate. The kBBM solutions were pre-warmed for 10 minutes at 37° C. […] The final concentration of kBBM in each incubation was 50 mcg protein/mL. Reactions were maintained at 37° C. in a shaking water bath. […] Quenched samples were centrifuged at 2178×g for 10 min and then a portion of the supernatants were transferred to a clean 96-well plate and diluted 1:1 with water. Samples were analyzed by UPLC-MS/MS.

[4] = In vitro stability in subcutaneous (SC) tissue homogenates; format: in vitro ADME; details: subcutaneous tissue homogenate, pH 7.4; human SC tissue homogenate 1.0 mg protein/mL, 10 mcM peptide, 37° C.; read-out: (H)SC tissue stability t½ (converted)
Description: In vitro incubations in subcutaneous (SC) tissue homogenates were used to characterize the ability of peptides to resist pre-systemic degradation by proteases and peptidases after SC administration. […] Peptides with high SC bioavailability are stable in this assay, while peptides with low SC bioavailability are unstable in this assay.
Human SC tissue was homogenized in cold 25 mM HEPES buffer (pH 7.4, 10-fold volume based on sample weight), and then filtered through a double layer of cheesecloth. The filtrates were aliquoted, flash frozen on a methanol/dry ice bath and stored at −80° C. The protein concentration of each pooled batch was determined using the BCA protein assay. Thawed stocks of human SC tissue homogenates were diluted to 1.0 mg protein/mL in 25 mM HEPES buffer (pH 7.4) and aliquoted into a 96-well plate. The diluted SC homogenates were pre-warmed for 10 minutes at 37° C. […] Reactions were maintained at 37° C. in a shaking water bath. […] Quenched samples were centrifuged at 2178×g for 10 min and then a portion of the supernatants were transferred to a clean 96-well plate and diluted 1:10 with water. Samples were analyzed by UPLC-MS/MS.

[5] = biological target: human Y4 receptor (Homo sapiens, UniProt P50391); assay: NPY receptor functional assay (cAMP, HEK-CNG cells, ACTOne membrane potential dye); format: cell-based; details: standard PP, species (human or rat) not given
Method in brief: as §1

Chain of human Y4 receptor (P50391 whole entry): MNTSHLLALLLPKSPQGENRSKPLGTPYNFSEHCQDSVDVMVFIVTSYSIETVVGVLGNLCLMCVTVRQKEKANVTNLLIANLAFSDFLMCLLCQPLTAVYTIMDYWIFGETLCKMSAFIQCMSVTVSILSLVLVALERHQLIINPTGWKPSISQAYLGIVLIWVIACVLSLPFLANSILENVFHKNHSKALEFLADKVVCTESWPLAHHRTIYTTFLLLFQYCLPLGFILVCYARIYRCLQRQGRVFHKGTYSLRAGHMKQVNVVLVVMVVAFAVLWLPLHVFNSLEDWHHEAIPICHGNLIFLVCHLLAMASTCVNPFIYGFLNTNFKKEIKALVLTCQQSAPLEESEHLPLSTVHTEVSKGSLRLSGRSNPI

Compound	pEC50 [1]	pEC50 [2]	half-life at 1 mcM [3] [h]	half-life at 10 mcM [4] [h]	NPY4R pEC50 [5]
CC(C)C[C@H](NC(=O)[C@H](CC(=O)O)NC(=O)[C@H](CCCCNC(=O)CC[C@H](NC(=O)CC[C@H](NC(=O)CCCCCCCCCCCCCCCCCCC(=O)O)C(=O)O)C(=O)O)NC(=O)[C@H](Cc1ccc(O)cc1)NC(=O)[C@H](Cc1ccc(O)cc1)NC(=O)[C@H](CCCNC(=N)N)NC(=O)[C@H](CC(N)=O)NC(=O)[C@H](Cc1c[nH]c2ccccc12)NC(=O)[C@H](CCC(=O)O)NC(=O)[C@H](CCCCN)NC(=O)[C@@H]1CCCN1C(=O)[C@H](CO)NC(=O)[C@H](C)NC(=O)[C@H](CC(=O)O)NC(=O)[C@H](CCC(=O)O)NC(=O)CNC(=O)[C@@H]1CCCN1C(=O)[C@H](CCCCN)NC(=O)[C@H](CCC(=O)O)NC(=O)[C@@H]1CCCN1C(=O)[C@H](CCCCN)NC(=O)[C@@H]1CCCN1)C(=O)N[C@@H](CCCNC(=N)N)C(=O)N[C@@H](Cc1c[nH]cn1)C(=O)N[C@@H](Cc1ccc(O)cc1)C(=O)N[C@@H](CC(C)C)C(=O)N[C@@H](CC(N)=O)C(=O)N[C@@H](Cc1c[nH]c2ccccc12)C(=O)N[C@@H](CC(C)C)C(=O)N[C@H](C(=O)N[C@@H](CCCNC(=N)N)C(=O)N[C@@H](CCC(N)=O)C(=O)N[C@@H](CCCNC(=N)N)C(=O)N[C@@H](Cc1ccccc1)C(N)=O)[C@@H](C)O [Compound A29]	10.90	9.00	8.7	1.1	
CC(C)C[C@H](NC(=O)[C@H](Cc1ccc(O)cc1)NC(=O)[C@H](Cc1c[nH]cn1)NC(=O)[C@H](CCCNC(=N)N)NC(=O)[C@H](C)NC(=O)[C@H](CC(=O)O)NC(=O)[C@H](C)NC(=O)[C@H](Cc1ccc(O)cc1)NC(=O)[C@H](Cc1ccc(O)cc1)NC(=O)[C@H](CCCNC(=N)N)NC(=O)[C@H](CC(N)=O)NC(=O)[C@H](Cc1c[nH]c2ccccc12)NC(=O)[C@H](CCC(=O)O)NC(=O)[C@H](CCC(=O)O)NC(=O)[C@@H]1CCCN1C(=O)[C@H](CO)NC(=O)[C@H](C)NC(=O)[C@H](CC(=O)O)NC(=O)[C@H](CCCCN)NC(=O)CNC(=O)[C@@H]1CCCN1C(=O)[C@H](C)NC(=O)[C@H](CCC(=O)O)NC(=O)[C@@H]1CCCN1C(=O)[C@H](CCCCN)NC(=O)[C@@H]1CCCN1C(=O)[C@@H](N)CCCCNC(=O)CC[C@H](NC(=O)CC[C@H](NC(=O)CCCCCCCCCCCCCCCCCCC(=O)O)C(=O)O)C(=O)O)C(=O)N[C@@H](CC(N)=O)C(=O)N[C@@H](Cc1c[nH]c2ccccc12)C(=O)N[C@@H](CC(C)C)C(=O)N[C@H](C(=O)N[C@@H](CCCNC(=N)N)C(=O)N[C@@H](CCC(N)=O)C(=O)N[C@@H](CCCNC(=N)N)C(=O)N(C)[C@@H](Cc1ccc(O)cc1)C(N)=O)[C@@H](C)O [Compound A4] (H-K([γGlu-γGlu-C20 diacid])PKPEAPGKDASPEEWNRYYADARHYLNWLTRQR[NMeY]-NH2; N-terminus assumed)	8.70	7.30			inactive
CC(C)C[C@H](NC(=O)[C@H](Cc1ccc(O)cc1)NC(=O)[C@H](Cc1c[nH]cn1)NC(=O)[C@H](CCCNC(=N)N)NC(=O)[C@H](C)NC(=O)[C@H](CC(=O)O)NC(=O)[C@H](C)NC(=O)[C@H](Cc1ccc(O)cc1)NC(=O)[C@H](Cc1ccc(O)cc1)NC(=O)[C@H](CCCNC(=N)N)NC(=O)[C@H](CC(N)=O)NC(=O)[C@H](Cc1c[nH]c2ccccc12)NC(=O)[C@H](CCC(=O)O)NC(=O)[C@H](CCC(=O)O)NC(=O)[C@@H]1CCCN1C(=O)[C@H](CO)NC(=O)[C@H](C)NC(=O)[C@H](CC(=O)O)NC(=O)[C@H](CCCCN)NC(=O)CNC(=O)[C@@H]1CCCN1C(=O)[C@H](C)NC(=O)[C@H](CCC(=O)O)NC(=O)[C@@H]1CCCN1C(=O)[C@H](CCCCNC(=O)CC[C@H](NC(=O)CC[C@H](NC(=O)CCCCCCCCCCCCCCCCCCC(=O)O)C(=O)O)C(=O)O)NC(=O)[C@@H]1CCCN1)C(=O)N[C@@H](CC(N)=O)C(=O)N[C@@H](Cc1c[nH]c2ccccc12)C(=O)N[C@@H](CC(C)C)C(=O)N[C@H](C(=O)N[C@@H](CCCNC(=N)N)C(=O)N[C@@H](CCC(N)=O)C(=O)N[C@@H](CCCNC(=N)N)C(=O)N(C)[C@@H](Cc1ccc(O)cc1)C(N)=O)[C@@H](C)O [Compound A5]	7.70	8.00			inactive
CC(C)C[C@H](NC(=O)[C@H](CC(=O)O)NC(=O)[C@H](CCCCNC(=O)CC[C@H](NC(=O)CC[C@H](NC(=O)CCCCCCCCCCCCCCCCCCC(=O)O)C(=O)O)C(=O)O)NC(=O)[C@H](Cc1ccc(O)cc1)NC(=O)[C@H](Cc1ccc(O)cc1)NC(=O)[C@H](CCCNC(=N)N)NC(=O)[C@H](CC(N)=O)NC(=O)[C@H](Cc1c[nH]c2ccccc12)NC(=O)[C@H](CCC(=O)O)NC(=O)[C@H](CCC(=O)O)NC(=O)[C@@H]1CCCN1C(=O)[C@H](CO)NC(=O)[C@H](C)NC(=O)[C@H](CC(=O)O)NC(=O)[C@H](CCCCN)NC(=O)CNC(=O)[C@@H]1CCCN1C(=O)[C@H](C)NC(=O)[C@H](CCC(=O)O)NC(=O)[C@@H]1CCCN1C(=O)[C@H](CCCCN)NC(=O)[C@@H]1CCCN1)C(=O)N[C@@H](CCCNC(=N)N)C(=O)N[C@@H](Cc1c[nH]cn1)C(=O)N[C@@H](Cc1ccc(O)cc1)C(=O)N[C@@H](CC(C)C)C(=O)N[C@@H](CC(N)=O)C(=O)N[C@@H](Cc1c[nH]c2ccccc12)C(=O)N[C@@H](CC(C)C)C(=O)N[C@H](C(=O)N[C@@H](CCCNC(=N)N)C(=O)N[C@@H](CCC(N)=O)C(=O)N[C@@H](CCCNC(=N)N)C(=O)N[C@@H](Cc1ccccc1)C(N)=O)[C@@H](C)O [Compound A54]	7.70	8.00			inactive
CC(C)C[C@H](NC(=O)[C@H](Cc1ccc(O)cc1)NC(=O)[C@H](Cc1c[nH]cn1)NC(=O)[C@H](CCCNC(=N)N)NC(=O)[C@H](C)NC(=O)[C@H](CC(=O)O)NC(=O)[C@H](C)NC(=O)[C@H](Cc1ccc(O)cc1)NC(=O)[C@H](Cc1ccc(O)cc1)NC(=O)[C@H](CCCNC(=N)N)NC(=O)[C@H](CC(N)=O)NC(=O)[C@H](Cc1c[nH]c2ccccc12)NC(=O)[C@H](CCC(=O)O)NC(=O)[C@H](CCCCNC(=O)CC[C@H](NC(=O)CC[C@H](NC(=O)CCCCCCCCCCCCCCCCCCC(=O)O)C(=O)O)C(=O)O)NC(=O)[C@@H]1CCCN1C(=O)[C@H](CO)NC(=O)[C@H](C)NC(=O)[C@H](CC(=O)O)NC(=O)[C@H](CCCCN)NC(=O)CNC(=O)[C@@H]1CCCN1C(=O)[C@H](C)NC(=O)[C@H](CCC(=O)O)NC(=O)[C@@H]1CCCN1C(=O)[C@H](CCCCN)NC(=O)[C@@H]1CCCN1)C(=O)N[C@@H](CC(N)=O)C(=O)N[C@@H](Cc1c[nH]c2ccccc12)C(=O)N[C@@H](CC(C)C)C(=O)N[C@H](C(=O)N[C@@H](CCCNC(=N)N)C(=O)N[C@@H](CCC(N)=O)C(=O)N[C@@H](CCCNC(=N)N)C(=O)N(C)[C@@H](Cc1ccc(O)cc1)C(N)=O)[C@@H](C)O [Compound A8]	9.60	7.10			inactive
